In patent publication US8101745B2, “Lung-targeted drugs” (priority 2004, dated 2012):
“And” between values parts separate entries of the source, which are not always exact repeats. Identical values can stand only once. Like-named read-outs stand apart in the source and are kept apart here.

How the values were obtained:
Vaccinia Copenhagen [1] = settings: cited from earlier work; for EC50: Vaccinia Copenhagen, effective dose 50%
Cowpox Brighton [2] = format: cell-based
[3] = in vivo; cited from earlier work
[4] = toxic dose 50%; read-out: TC50 (the source's name); cited from earlier work
ectromelia virus [5] = settings: mouse, in vivo, po, cited from earlier work
Vaccinia Copenhagen [6] = format: cell-based
Cowpox Brighton [7] = settings: cited from earlier work
[8] = Oral pharmacokinetics of 14C-labeled drug, liver and lung levels in mice; settings: for AUC 14C-Drug Liver / AUC 14C-Drug Lung / Ratio Lung/Liver / Ratio Liver/Lung: 10 mg/kg single oral dose, 0 to 72 hours; for Ratio Lung/Liver / Ratio Liver/Lung: ratio of AUC
ectromelia virus [9] = system: ectromelia virus; parameters: species or system Female A/NCR mice; settings: mouse, in vivo, po

Row | SMILES | EC50 (Vaccinia Copenhagen [1]) | SI (Cowpox Brighton [2]) | CC50 [4] | Lung titer (ectromelia virus [5]; 10 mg/kg) | Mortality (ectromelia virus [5]; 10 mg/kg) | Spleen titer (ectromelia virus [5]; 10 mg/kg) | SI (Vaccinia Copenhagen [6]) | EC50 (Cowpox Brighton [7]) | AUC 14C-Drug Liver ([8]; mice) | AUC 14C-Drug Lung ([8]; mice) | Ratio Lung/Liver [8] | Ratio Liver/Lung ([8]; 10 mg/kg) | also measured
1 | Nc1ccn(C[C@@H](CO)OCP(=O)(O)O)c(=O)n1 [CDV, cidofovir] | 31000 nM | >7.5 | > 317000 nM | 3 × 10^6 pfu/ml | 100% | 3 × 10^6 pfu/ml | >10 | 42000 nM |  |  |  |  | oral bioavailability [3]: < 6%
2 | CCCCCCCCCCCCCCCCOCCCOP(=O)(O)CO[C@H](CO)Cn1ccc(N)nc1=O [HDP-CDV, hexadecyloxypropyl-CDV] | 600 nM | 58 | 29000 nM | 5 × 10^4 pfu/ml | 0% | <10^2 pfu/ml | 48 | 500 nM | 1367 nmol · gm · hrs | 49 nmol · gm · hrs | 0.04 | 27.9 | Liver titer (ectromelia virus [5]; 10 mg/kg): <10^2 pfu/ml
3 | CCCCCCCCCCCCCCCCCCOCCOP(=O)(O)CO[C@H](CO)Cn1ccc(N)nc1=O [ODE-CDV, octadecyloxyethyl-CDV] | 600 nM | 105 | 21000 nM |  |  |  | 105 | 500 nM | 1215 nmol · gm · hrs | 60 nmol · gm · hrs | 0.05 | 20.3 | Liver titer (ectromelia virus [5]; 5 mg/kg): <10^2 pfu/ml; Lung titer (ectromelia virus [5]; 5 mg/kg): 3 × 10^5 pfu/ml; Mortality (ectromelia virus [5]; 5 mg/kg): 0%; Spleen titer (ectromelia virus [5]; 5 mg/kg): <10^2 pfu/ml
4 | CCCCCCCCCCCCCCCCCCOC[C@H](COP(=O)(O)CO[C@H](CO)Cn1ccc(N)nc1=O)OCc1ccccc1 [ODBG-CDV, 1-O-Octadecyl-2-O-benzyl-sn-glycero-3-cidofovir] | 400 nM | 157 | 47000 nM |  |  |  | 118 | 300 nM | 318 nmol · gm · hrs | 581 nmol · gm · hrs | 1.82 |  | activity against vaccinia virus in vitro (Vaccinia Copenhagen [1]; in words): highly active; Lung levels of 14C-labeled drug ([8]; 10 mg/kg oral, mice, over 72 hours, compared with HDP-CDV or ODE-CDV (FIG. 1)): much higher; liver levels of 14C-labeled drug ([8]; 10 mg/kg oral, mice, over 72 hours, compared with HDP-CDV or ODE-CDV (FIG. 2)): lower; lung area under curve relative to alkoxyalkyl derivatives of CDV ([8]; given orally, versus non lung-targeted alkoxyalkyl derivatives): 10 fold; Ratio Liver/Lung [8]: 0.55; Mortality day 21 (ectromelia virus [9]): 2/10 and 0/10; protection from death (ectromelia virus [9]): provides protection from death; Mean time to death (ectromelia virus [9]; 2 mg/kg/day): 13.0 ± 1.4; activity against cowpox virus in vitro (Cowpox Brighton [7]): highly active
